Here are results for eight molecules from article PMC10641831 (Journal of Medicinal Chemistry, 2023).

This experiment concerns the target T1, hOTR (Homo sapiens, UniProt P30559).
T1 construct: expressed in transfected cells
T1 sequence (P30559 1-389): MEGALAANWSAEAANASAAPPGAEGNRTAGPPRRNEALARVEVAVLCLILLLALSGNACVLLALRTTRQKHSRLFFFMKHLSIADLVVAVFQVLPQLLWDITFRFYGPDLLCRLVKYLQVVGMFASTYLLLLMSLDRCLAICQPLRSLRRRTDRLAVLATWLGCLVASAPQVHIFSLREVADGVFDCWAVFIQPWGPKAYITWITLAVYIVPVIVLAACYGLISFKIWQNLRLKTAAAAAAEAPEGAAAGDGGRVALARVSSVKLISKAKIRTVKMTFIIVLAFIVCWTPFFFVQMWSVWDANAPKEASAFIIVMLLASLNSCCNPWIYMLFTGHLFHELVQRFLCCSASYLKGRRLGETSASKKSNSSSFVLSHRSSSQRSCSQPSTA
In words: IP-One accumulation assay, agonist function, HEK293 cells expressing hOTR. In kind it is cell-based. The settings on record: for EC50: IP-One, stable HEK293 hOTR, E = thermal equilibrium, Z = PSS after 340 nm, read-out: OTR EC50 ± SEM; for OTR E/Z ratio EC50: ratio of EC50 of E- and Z-isomer; for Emax: HEK293, relative to the effect of OT, read-out: OTR Emax ± SEM; for decrease in potency compared to OT at OTR: EC50 vs OT.

The structures appear in SMILES notation. Numbered stars: 1 amine (or outer) side, 2 acyl side, 3 side chain; on linkers, the order of the positions; unused ones are H or OH. Bridge positions count the residues as written; N and C are the ends. Square brackets hold non-standard residues; d marks the D form. Peptide text beside a SMILES is read from it. Phe(4-(Z)-phenylazo) = N[C@@H](Cc1ccc(/N=N\c2ccccc2)cc1)C(=O)O; AMPB(E) = O=C(c1ccc(/N=N/c2ccc(CN[*:1])cc2)cc1)[*:2]; X1 = O=C([C@H](Cc1ccc(/N=N/c2ccccc2)cc1)N[*:1])[*:2]; X2 = O=C(c1ccc(/N=N\c2ccc(CN[*:1])cc2)cc1)[*:2]

`CC[C@H](C)[C@@H]1NC(=O)[C@H](Cc2ccc(/N=N/c3ccccc3)cc2)NC(=O)[C@@H](N)CSSC[C@@H](C(=O)N2CCC[C@H]2C(=O)N[C@@H](CC(C)C)C(=O)NCC(N)=O)NC(=O)[C@H](CC(N)=O)NC(=O)[C@H](CCC(N)=O)NC1=O` [E-8] (H-C[X1]IQNCPLG-NH2; disulfide 1-6): the EC50 (usually the concentration that produces a half-maximal response) was found to be 4500 ± 1010 nM and the “OTR E/Z ratio EC50” value stood at 1.3. Also, the “OTR Emax ± SEM” value (relative to the effect of OT) is 45 ± 3%.
In the case of `CC[C@H](C)[C@@H]1NC(=O)[C@H](Cc2ccc(O)cc2)NC(=O)[C@@H](N)CSSC[C@@H](C(=O)N[C@@H](Cc2ccc(/N=N/c3ccccc3)cc2)C(=O)N[C@@H](CC(C)C)C(=O)NCC(N)=O)NC(=O)[C@H](CC(N)=O)NC(=O)[C@H](CCC(N)=O)NC1=O` [E-9] (H-CYIQNC[X1]LG-NH2; disulfide 1-6), the Emax (in general, the maximal effect, on the per cent scale that the assay sets) was 89 ± 1%; the EC50 was determined as 346 ± 30 nM; the “OTR E/Z ratio EC50” value amounted to 2.5.
For `CC[C@H](C)[C@@H]1NC(=O)[C@H](Cc2ccc(O)cc2)NC(=O)[C@@H](N)CSSC[C@@H](C(=O)NCc2ccc(/N=N/c3ccc(C(=O)NCC(N)=O)cc3)cc2)NC(=O)[C@H](CC(N)=O)NC(=O)[C@H](CCC(N)=O)NC1=O` [E-10] (H-CYIQNC[AMPB(E)]G-NH2; disulfide 1-6), the Emax amounted to 80 ± 1%, the EC50 stood at 94.6 ± 19 nM and the “OTR E/Z ratio EC50” value was 3.1.
For `CC[C@H](C)[C@@H]1NC(=O)[C@H](Cc2ccc(O)cc2)NC(=O)[C@@H](N)CSSC[C@@H](C(=O)NCc2ccc(/N=N/c3ccc(C(=O)N[C@@H](CC(C)C)C(=O)NCC(N)=O)cc3)cc2)NC(=O)[C@H](CC(N)=O)NC(=O)[C@H](CCC(N)=O)NC1=O` [E-11] (H-CYIQNC[AMPB(E)]LG-NH2; disulfide 1-6) the same measures were 75 ± 1%, 263 ± 21 nM and 2.0.
For `CC[C@H](C)[C@@H]1NC(=O)[C@H](Cc2ccc(/N=N\c3ccccc3)cc2)NC(=O)[C@@H](N)CSSC[C@@H](C(=O)N2CCC[C@H]2C(=O)N[C@@H](CC(C)C)C(=O)NCC(N)=O)NC(=O)[C@H](CC(N)=O)NC(=O)[C@H](CCC(N)=O)NC1=O` [Z-8] (H-C[Phe(4-(Z)-phenylazo)]IQNCPLG-NH2; disulfide 1-6) the same measures were 35 ± 1%, 3500 ± 1890 nM and 1.3.
Take `CC[C@H](C)[C@@H]1NC(=O)[C@H](Cc2ccc(O)cc2)NC(=O)[C@@H](N)CSSC[C@@H](C(=O)N[C@@H](Cc2ccc(/N=N\c3ccccc3)cc2)C(=O)N[C@@H](CC(C)C)C(=O)NCC(N)=O)NC(=O)[C@H](CC(N)=O)NC(=O)[C@H](CCC(N)=O)NC1=O` [Z-9] (H-CYIQNC[Phe(4-(Z)-phenylazo)]LG-NH2; disulfide 1-6): the “decrease in potency compared to OT at OTR” value was found to be 55 fold, the Emax amounted to 90 ± 1%, the EC50 amounted to 136 ± 6 nM and the “OTR E/Z ratio EC50” value is 2.5.
For `CC[C@H](C)[C@@H]1NC(=O)[C@H](Cc2ccc(O)cc2)NC(=O)[C@@H](N)CSSC[C@@H](C(=O)NCc2ccc(/N=N\c3ccc(C(=O)NCC(N)=O)cc3)cc2)NC(=O)[C@H](CC(N)=O)NC(=O)[C@H](CCC(N)=O)NC1=O` [Z-10] (H-CYIQNC[X2]G-NH2; disulfide 1-6) the same measures were 12 fold, 92%, 30.7 ± 4 nM and 3.1.
For `CC[C@H](C)[C@@H]1NC(=O)[C@H](Cc2ccc(O)cc2)NC(=O)[C@@H](N)CSSC[C@@H](C(=O)NCc2ccc(/N=N\c3ccc(C(=O)N[C@@H](CC(C)C)C(=O)NCC(N)=O)cc3)cc2)NC(=O)[C@H](CC(N)=O)NC(=O)[C@H](CCC(N)=O)NC1=O` [Z-11] (H-CYIQNC[X2]LG-NH2; disulfide 1-6) the same measures were 55 fold, 86 ± 1%, 134 ± 17 nM and 2.0.
